Measured values taken from PubChem BioAssay AID248 (DTP/NCI, 2004).
“And” between values parts separate entries of the source, which are not always exact repeats. Identical values can stand only once. Toxic doses and inconclusive results are not listed. No stated cut-off is given here; in the data, active means T/C of 150% or more; inactive means T/C below 125%.

Test system: L1210 leukemia ip in BDF1 mice, survival T/C
Experiment: NCI In Vivo Anticancer Drug Screen. Data for tumor model L1210 Leukemia (intraperitoneal) in B6D2F1 (BDF1) mice
Conditions: endpoint: mean survival time, higher = longer survival
Summary of the method: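 Transplanted-tumor mice were given test agent; controls received vehicle only. Survival readings from the two groups were divided (treated over control).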

[1] = dose: 100.0 mg/kg/injection, schedule: Q01DX001 (ip), vehicle: saline
[2] = dose: 100.0 mg/kg/injection, schedule: Q04DX002 (ip), vehicle: saline
[3] = dose: 200.0 mg/kg/injection, schedule: Q04DX002 (ip), vehicle: saline
[4] = dose: 100.0 mg/kg/injection, schedule: Q01DX009 (ip), vehicle: Klucel (hydroxypropylcellulose) (HPC)
[5] = dose: 200.0 mg/kg/injection, schedule: Q01DX009 (ip), vehicle: Klucel (hydroxypropylcellulose) (HPC)
[6] = dose: 400.0 mg/kg/injection, schedule: Q01DX009 (ip), vehicle: Klucel (hydroxypropylcellulose) (HPC)
[7] = dose: 100.0 mg/kg/injection, schedule: Q04DX003 (ip), vehicle: Klucel (hydroxypropylcellulose) (HPC)
[8] = dose: 200.0 mg/kg/injection, schedule: Q04DX003 (ip), vehicle: Klucel (hydroxypropylcellulose) (HPC)
[9] = dose: 400.0 mg/kg/injection, schedule: Q04DX003 (ip), vehicle: Klucel (hydroxypropylcellulose) (HPC)
[10] = dose: 100.0 mg/kg/injection, schedule: Q04DX002 (ip), vehicle: Klucel (hydroxypropylcellulose) (HPC)
[11] = dose: 200.0 mg/kg/injection, schedule: Q04DX002 (ip), vehicle: Klucel (hydroxypropylcellulose) (HPC)
[12] = dose: 400.0 mg/kg/injection, schedule: Q04DX002 (ip), vehicle: Klucel (hydroxypropylcellulose) (HPC)

Measured: T/C

O=C(O)c1ccc(N/N=C/C(F)(F)F)cc1
inactive: dose: 25.0 mg/kg/injection, schedule: Q01DX009 (ip), vehicle: saline 95 % of control and 98 % of control | dose: 50.0 mg/kg/injection, schedule: Q01DX001 (ip), vehicle: saline 110 % of control | dose: 50.0 mg/kg/injection, schedule: Q01DX009 (ip), vehicle: saline 93 % of control and 106 % of control | [1] 96 % of control | dose: 100.0 mg/kg/injection, schedule: Q01DX009 (ip), vehicle: saline 95 % of control and 87 % of control | [2] 106 % of control and 109 % of control | [3] 96 % of control

CCOC(=O)Oc1c(Cl)cc(S(=O)(=O)F)cc1Cl
inactive: dose: 100.0 mg/kg/injection, schedule: Q04DX003 (ip), vehicle: carboxymethylcellulose (CMC) 101 % of control | dose: 200.0 mg/kg/injection, schedule: Q04DX003 (ip), vehicle: carboxymethylcellulose (CMC) 108 % of control | dose: 400.0 mg/kg/injection, schedule: Q04DX003 (ip), vehicle: carboxymethylcellulose (CMC) 90 % of control

CCCCCCCC(=O)N(CCO)CCO
inactive: dose: 100.0 mg/kg/injection, schedule: Q04DX002 (ip), vehicle: other 96 % of control | dose: 200.0 mg/kg/injection, schedule: Q04DX002 (ip), vehicle: other 101 % of control | dose: 400.0 mg/kg/injection, schedule: Q04DX002 (ip), vehicle: other 96 % of control

COc1ccc(CCNCC(O)CSc2cccc(C)c2)cc1OC (stereo unspecified)
inactive: dose: 75.0 mg/kg/injection, schedule: Q01DX001 (ip), vehicle: saline 101 % of control | dose: 150.0 mg/kg/injection, schedule: Q01DX001 (ip), vehicle: saline 95 % of control

O=S(=O)(CCCCCCl)Cc1ccccc1
inactive: [1] 93 % of control | dose: 200.0 mg/kg/injection, schedule: Q01DX001 (ip), vehicle: saline 93 % of control | dose: 400.0 mg/kg/injection, schedule: Q01DX001 (ip), vehicle: saline 96 % of control

c1ccc([C](c2ccccc2)(c2ccccc2)[Ge]([c]2ccccc2)([c]2ccccc2)[c]2ccccc2)cc1
inactive: dose: 12.8 mg/kg/injection, schedule: Q04DX002 (ip), vehicle: saline with Tween-80 93 % of control | dose: 32.0 mg/kg/injection, schedule: Q04DX002 (ip), vehicle: saline with Tween-80 96 % of control | dose: 80.0 mg/kg/injection, schedule: Q04DX002 (ip), vehicle: saline with Tween-80 89 % of control | dose: 200.0 mg/kg/injection, schedule: Q04DX002 (ip), vehicle: saline with Tween-80 89 % of control

O=C(NCCCCCCNC(=O)Oc1ccccc1F)Oc1ccccc1F
inactive: [4] 102 % of control | [5] 97 % of control | [6] 91 % of control

CCCCN(C)N=Nc1ccccc1C(=O)O
inactive: dose: 6.25 mg/kg/injection, schedule: Q01DX009 (ip), vehicle: other 100 % of control | dose: 12.5 mg/kg/injection, schedule: Q01DX009 (ip), vehicle: other 103 % of control | dose: 25.0 mg/kg/injection, schedule: Q01DX009 (ip), vehicle: other 108 % of control | dose: 50.0 mg/kg/injection, schedule: Q01DX009 (ip), vehicle: other 110 % of control | dose: 100.0 mg/kg/injection, schedule: Q01DX009 (ip), vehicle: other 123 % of control

COc1ccc(/C=C2N=C(/C=C/c3ccccc3)OC\2=O)cc1OC
inactive: dose: 100.0 mg/kg/injection, schedule: Q04DX002 (ip), vehicle: gum acacia 88 % of control | dose: 200.0 mg/kg/injection, schedule: Q04DX002 (ip), vehicle: gum acacia 95 % of control | dose: 400.0 mg/kg/injection, schedule: Q04DX002 (ip), vehicle: gum acacia 88 % of control

O=C1NCC2CCc3c(ccc4ccccc34)N12 (stereo unspecified)
inactive: dose: 100.0 mg/kg/injection, schedule: Q01DX001 (ip), vehicle: other 100 % of control | dose: 200.0 mg/kg/injection, schedule: Q01DX001 (ip), vehicle: other 94 % of control | dose: 400.0 mg/kg/injection, schedule: Q01DX001 (ip), vehicle: other 93 % of control

CCC(=O)N(C)c1cccc(O)c1
inactive: dose: 100.0 mg/kg/injection, schedule: Q01DX001 (ip), vehicle: saline with Tween-80 114 % of control | dose: 200.0 mg/kg/injection, schedule: Q01DX001 (ip), vehicle: saline with Tween-80 94 % of control | dose: 400.0 mg/kg/injection, schedule: Q01DX001 (ip), vehicle: saline with Tween-80 97 % of control

C#CCSC(C)C
inactive: dose: 25.0 mg/kg/injection, schedule: Q04DX002 (ip), vehicle: saline 104 % of control | dose: 50.0 mg/kg/injection, schedule: Q04DX002 (ip), vehicle: saline 104 % of control | [2] 96 % of control | [3] 104 % of control and 107 % of control | dose: 400.0 mg/kg/injection, schedule: Q04DX002 (ip), vehicle: saline 93 % of control

CCOC1=CCN(S(=O)(=O)c2ccc(C)cc2)c2ccc(OC)cc21
inactive: [4] 100 % of control | [7] 104 % of control | [5] 96 % of control | [8] 94 % of control | [6] 89 % of control | [9] 98 % of control

CN1C2CC(=O)CC1C1CC2C1
inactive: dose: 12.5 mg/kg/injection, schedule: Q04DX002 (ip), vehicle: Klucel (hydroxypropylcellulose) (HPC) 98 % of control | dose: 25.0 mg/kg/injection, schedule: Q04DX002 (ip), vehicle: Klucel (hydroxypropylcellulose) (HPC) 94 % of control

COC(=O)C(=O)CC(=O)c1cccc([N+](=O)[O-])c1
inactive: [10] 103 % of control | [11] 95 % of control | [12] 95 % of control

CNCCOc1ccccc1
inactive: dose: 50.0 mg/kg/injection, schedule: Q01DX009 (ip), vehicle: saline with Tween-80 105 % of control | dose: 100.0 mg/kg/injection, schedule: Q01DX009 (ip), vehicle: saline with Tween-80 101 % of control | dose: 100.0 mg/kg/injection, schedule: Q04DX003 (ip), vehicle: saline with Tween-80 107 % of control | dose: 200.0 mg/kg/injection, schedule: Q04DX003 (ip), vehicle: saline with Tween-80 93 % of control

Cc1ncc(C#N)n1Cc1ccccc1
inactive: [4] 98 % of control and 101 % of control | [10] 101 % of control and 113 % of control | [7] 109 % of control | [5] 101 % of control and 103 % of control | [11] 103 % of control and 108 % of control | [8] 104 % of control | [6] 101 % of control | [12] 103 % of control and 109 % of control | [9] 111 % of control

COC(=O)c1ccc(OC(=O)Nc2ccc([N+](=O)[O-])cc2OC)cc1
inactive: dose: 25.0 mg/kg/injection, schedule: Q01DX009 (ip), vehicle: Klucel (hydroxypropylcellulose) (HPC) 96 % of control | dose: 50.0 mg/kg/injection, schedule: Q01DX009 (ip), vehicle: Klucel (hydroxypropylcellulose) (HPC) 101 % of control | [4] 93 % of control and 100 % of control
